Reference: patent US4618682A, “2-amino-4,5-dihydro-1H-imidazole-1-carboxanilides” (McNeilab, Inc., priority 1985, dated 1986)
Structures can show the parent of a compound that is named as a salt.

What was measured:
[1] = test system: Spontaneously hypertensive rat; assay: Rodent Antihypertensive Screen (arterial pressure and heart rate, aortic cannula); assay type: in vivo, adult spontaneously hypertensive rats (Charles River); details: for Duration / Effect on heart rate / Max. decr. in MAP: 35 mg/kg p.o., spontaneously hypertensive rat; for antihypertensive activity compared with corresponding rearranged N-aryl-N'-(4,5-dihydro-1H-imidazol-2-yl) ureas IV: versus corresponding ureas IV
Source text: This test evaluates compounds for effects on arterial pressure and heart rate. In this test, the arterial pressure of adult spontaneously hypertensive rats (Charles River) is monitored directly via an aortic cannula. Rats are anesthetized with an inhalation anesthetic (methoxyflurane). The left carotid artery is isolated and cannulated. The tip of the cannula is advanced to the aorta and the cannula is exteriorized behind the neck at the level of the scapula. Animals are placed in individual cages and allowed to recover from the anesthetic and are kept unrestrained. The arterial cannula is connected to the pressure transducer which is attached to the recorder. Heart rate is determined from the arterial pressure recording. The test compounds are administered either orally (p.o.) by gavage or by intraperitoneal (i.p.) injection. The arterial pressure and heart rate are monitored for a minumum of 24 hours. A test compound is considered to be active as an antihypertensive agent if the mean arterial pressure (MAP) indicates a fall of >15 mm of Hg. Each animal serves as his own control. The results of this test employing at least 3 rats per dose level for each compound and performed with various compounds of the present invention are shown in Table I.

[2] = test system: Gastric fistula rat; assay: acute gastric fistula rat test (antisecretory screen); assay type: in vivo, Female Sprague-Dawley rats; details: for inhibition in vivo at 20 mg/kg: intraduodenal, 20 mg/kg I.D., read-out: % Inhibition of gastric secretion; for ED50: po, 1 hr
Method: The principal antisecretory screen is the acute gastric fistula rat test which is carried out as follows: Female Sprague-Dawley rats are used for this study. The weights range from 125-250 gms; however, weights in any given test have a range of ±20 gms. The rats are fasted 24 hours before testing, water is given ad lib. At the time of fasting, the rats are placed in individual cages with wide mesh bottoms. This eliminates the problem of cannibalism and coprophagia. On the day of testing, the rats are weighed beforehand to determine the weight range and to allow for even distribution. Surgery is carried out under light ether anesthesia. As soon as the rat is anesthetized, its teeth are removed using a small pinch pliers. A midline incision is made on the abdomen about 11/2 cm long and the stomach is exposed. If, at this point, the stomach is filled with food or fecal material, the rat is discarded except for orally administered rats. In this case, the stomach contents are gently squeezed into the duodenum. Using a 4-0 polyester fiber suture, a purse string stitch is placed on the fundic portion of the stomach taking care to avoid any blood vessels in the area. A small nick is made into the stomach in the center of the purse string and a cannula, consisting of a small vinyl tube with a flange on one end, is put into the stomach and the purse string is closed tightly around the flange. Immediately following this, the rat is dosed intraduodenally using a volume of 0.5 ml per 100 gm body weight. The abdominal wall and skin are closed simultaneously with three to four 18 mm wound clips. The rat is then placed in a box containing a longitudinal slit which allows the cannula to hang freely and the rat is able to move about unencumbered. At the completion of the procedure, the time is marked 0 minutes. The rat is allowed to stabilize for 30 minutes, at which time the collection tube is discarded and replaced with a clean collection tube to receive the gastric juice. Only a one-hour collection is made for a screening study. In evaluation studies, one- and two-hour collections are made. At the end of the study, the cannula is pulled out and the rat is sacrificed. The gastric contents collected are drained into a centrifuge tube and centrifuged to pack down the sediment. The volume is read and a 1 ml aliquot of the supernatant is put into a beaker containing distilled water and titrated to pH 7 using 0.01 N NaOH. Mean values are determined for volume, titratable acid and total acid output where volume equals total ml of gastric juice minus sediment, titratable acid (mEq/1) equals amount of 0.01 N NaOH needed to titrate the acid to pH 7 times 10 and total acid output equals titratable acid times volume. Results are reported in percent inhibition over control values. In studies using oral administration, the drugs are dosed in a volume of 1 ml per 100 gm body weight one hour before surgery (pretreatment equals 90 minutes). In subcutaneous studies, the drug may be given immediately after the surgical procedure (pretreatment equals 30 minutes) or after the 30-minute stabilization period when the collection tube is changed (pretreatment time equals 0 minutes). The volume used in subcutaneous studies is 0.2 ml per 100 gm body weight.

[3] = heat sensitivity of isolated salt; assay type: physicochemical
Method: Maintained a temperature of -10° to -13° C. throughout the addition and stirred at -10° to -15° for 3 more hours. Stored the reaction mixture in the refrigerator at +4° C. overnight. Allowed to warm to +10° C. then placed in ice/ H2 O bath and acidified to pH<3 with 10% HCl. Added to 1400 ml of ice/H2 O and stirred. Filtered some insoluble material and the filtrate basified with solid K2 CO3 (keep cold!) to pH 8-9. Filtered the resulting white solid, the free base of the product. Immediately suspended in 200 ml of MeOH and dissolved by addition of ethereal HCl to pH<3. The solvent and excess HCl were removed in vacuo to yield the crude product, a white solid. The free base was regenerated again as above and converted to the hydrochloride as before. […] 210°--212° C.

SMILES	Duration [1]	Effect on heart rate [1]	Max. decr. in MAP [1]	antihypertensive activity compared with corresponding rearranged N-aryl-N'-(4,5-dihydro-1H-imidazol-2-yl) ureas IV [1]	inhibition in vivo at 20 mg/kg [2]	ED50 [2]	sensitivity to heat [3]	loss of HCl on heating ([3]; above 50° /vac)
Cl.NC1=NCCN1C(=O)Nc1c(Cl)cccc1Cl [Example 1, 2-Amino-N-(2,6-dichlorophenyl)-4,5-dihydro-1H-imidazole-1-carboxamide Monohydrochloride]	0.5 h	-48 beats/min	32 mm Hg	significantly less antihypertensive activity	62%			
Cc1cccc(C)c1NC(=O)N1CCN=C1N.Cl [Example 5, 2-Amino-N-(2,6-dimethylphenyl)-4,5-dihydro-1H-imidazole-1-carboxamide Monohydrochloride]	1.0 h	-27 beats/min	23 mm Hg	significantly less antihypertensive activity	88%			
Cc1ccc(NC(=O)N2CCN=C2N)cc1 [Example 2, 2-Amino-4,5-dihydro-N-(4-methylphenyl)-1H-imidizole-1-carboxamide Monohydrochloride Hydrate (4:1)]	6.0 h	-162 beats/min	54 mm Hg	more potent antihypertensive activity	99%	4.6 mg/kg		
NC1=NCCN1C(=O)Nc1ccc(Cl)cc1 [Example 27, 2-Amino-N-(4-chlorophenyl)-4,5-dihydro-1H-imidazole-1-carboxamide Monohydrochloride Hydrate (17:1)]	15 h	-66 beats/min	41 mm Hg	more potent antihypertensive activity	95%	29.3 mg/kg		
NC1=NCCN1C(=O)Nc1ccc(Cl)c(Cl)c1 [Example 8, 2-Amino-N-(3,4-dichlorophenyl)-4,5-dihydro-1H-imidazole-1carboxamide Monohydrochloride Monohydrate, Compound with 1,1'Oxybisethane (12:1)]	2.0 h	-68 beats/min	44 mm Hg		96%	24.8 mg/kg	sensitive to heat	may lose HCl
NC1=NCCN1C(=O)Nc1ccccc1Cl [Example 3, 2-Amino-N-(2-chlorophenyl)-4,5-dihydro-1H-imidazole-1-carboxamide Monohydrochloride]	2.0 h	-77 beats/min	35 mm Hg		82%			
Cl.NC1=NCCN1C(=O)Nc1cccc(Cl)c1.O [Example 11, 2-Amino-N-(3-chlorophenyl)-4,5-dihydro-1H-imidazole-1carboxamide Monohydrochloride Monohydrate]	0.5 h	-26 beats/min	20 mm Hg		77%	14.2 mg/kg		
Cl.NC1=NCCN1C(=O)Nc1ccc(Cl)cc1Cl [Example 9, 2-Amino-N-(2,4-dichlorophenyl)-4,5-dihydro-1H-imidazole-1carboxamide Monohydrochloride]	2.0 h	-49 beats/min	33 mm Hg		71%	14.8 mg/kg		
Cl.NC1=NCCN1C(=O)Nc1cccc(Cl)c1Cl [Example 10, 2-Amino-N-(2,3-dichlorophenyl)-4,5-dihydro-1H-imidazole-1-carboxamide Monohydrochloride]	1.0 h	-66 beats/min	19 mm Hg		70%			
NC1=NCCN1C(=O)Nc1cccc(C(F)(F)F)c1 [Example 26, 2-Amino-4,5-dihydro-N-(3-trifluoromethylphenyl)-1H-imidazole-1-carboxamide Monohydrochloride Hemihydrate]	2.0 h	-71 beats/min	24 mm Hg		99%			
